Measured values: patent US9796733B2, “Imidazo-pyrazine derivatives useful as soluble guanylate cyclase activators” (Merck Sharp & Dohme Corp., priority 2014, dated 2017)

Biological target: T1, sGC α1/β1 heterodimer (Homo sapiens, UniProt Q02108+Q02153)
T1 construct: expressed in transfected cells; host or cells: CHO-K1 (clone #7, CHO-K1/sGC)
T1 sequence (Q02108 1-690): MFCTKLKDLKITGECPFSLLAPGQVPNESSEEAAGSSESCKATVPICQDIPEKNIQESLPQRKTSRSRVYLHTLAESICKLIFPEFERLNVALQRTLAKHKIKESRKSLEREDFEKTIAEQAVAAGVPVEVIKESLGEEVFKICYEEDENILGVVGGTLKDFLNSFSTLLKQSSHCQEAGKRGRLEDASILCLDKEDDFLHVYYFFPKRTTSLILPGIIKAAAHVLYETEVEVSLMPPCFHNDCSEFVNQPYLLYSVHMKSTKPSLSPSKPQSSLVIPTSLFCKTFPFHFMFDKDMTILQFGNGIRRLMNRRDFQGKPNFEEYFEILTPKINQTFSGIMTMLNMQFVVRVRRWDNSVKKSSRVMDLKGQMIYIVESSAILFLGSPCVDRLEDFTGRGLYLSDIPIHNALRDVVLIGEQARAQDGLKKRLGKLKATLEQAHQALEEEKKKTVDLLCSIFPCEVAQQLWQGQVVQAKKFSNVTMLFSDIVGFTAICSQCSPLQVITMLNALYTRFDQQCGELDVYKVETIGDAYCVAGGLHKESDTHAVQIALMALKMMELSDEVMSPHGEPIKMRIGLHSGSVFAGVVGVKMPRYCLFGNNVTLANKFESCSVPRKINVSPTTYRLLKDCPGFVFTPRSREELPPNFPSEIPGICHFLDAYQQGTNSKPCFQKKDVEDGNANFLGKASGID
T1 sequence (Q02153 1-619): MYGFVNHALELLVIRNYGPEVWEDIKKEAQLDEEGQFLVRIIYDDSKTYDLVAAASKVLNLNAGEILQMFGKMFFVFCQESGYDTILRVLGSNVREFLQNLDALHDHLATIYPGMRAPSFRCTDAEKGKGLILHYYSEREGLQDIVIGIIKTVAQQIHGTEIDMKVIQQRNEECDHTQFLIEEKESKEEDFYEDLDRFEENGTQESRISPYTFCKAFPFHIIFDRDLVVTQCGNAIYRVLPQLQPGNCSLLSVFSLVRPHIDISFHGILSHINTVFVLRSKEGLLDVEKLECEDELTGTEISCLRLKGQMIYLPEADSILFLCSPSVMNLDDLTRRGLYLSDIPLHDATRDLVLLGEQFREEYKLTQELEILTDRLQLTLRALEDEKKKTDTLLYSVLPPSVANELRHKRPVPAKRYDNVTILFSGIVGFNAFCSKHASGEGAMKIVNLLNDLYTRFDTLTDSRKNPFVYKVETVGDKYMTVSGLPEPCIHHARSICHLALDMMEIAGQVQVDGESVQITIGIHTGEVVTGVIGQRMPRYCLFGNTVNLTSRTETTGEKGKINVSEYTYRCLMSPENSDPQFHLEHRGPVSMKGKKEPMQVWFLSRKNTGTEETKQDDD
Test: Cell-based sGC functional assay (CASA assay): cGMP generation in CHO-K1/sGC cells, HTRF detection
Conditions: for Emax: CHO-K1, percent activation relative to standard Compound A in CHO-K1/sGC cells, read-out: % Act.; for EC50: inflection point (IP) of cGMP generation in CHO-K1/sGC cells, 4P fit, activity expressed as percentage of Compound A
Procedure, shortened: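 cGMP was quantified by HTRF after 1 hr, 37° C exposure of thawed CHO-K1 cells expressing sGC α1/β1 to compound, with or without 1 μM DETA-NO. IBMX (0.5 mM) blocked cGMP breakdown, and DMSO was 2.5% final. Percent of standard Compound A's maximal cGMP was fitted (4P) for inflection point.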

| Structure (SMILES) | Emax | EC50 |
| --- | --- | --- |
| CC1(C)C(=O)Nc2nc(-c3cn4c(Cl)cnc4c(CCC(F)(F)C(F)(F)F)n3)nc(N)c21 [Example 257, 4-amino-2-(3-chloro-8-(3,3,4,4,4-pentafluorobutyl)imidazo [1,2-a]pyrazin-6-yl)-5,5-dimethyl-5H-pyrrolo[2,3-d]pyrimidin-6(7H)-one] | 146% | 614 nM |
| CC1(c2ccc(F)cc2)C(=O)Nc2nc(-c3cn4c(Cc5ccccc5)cnc4c(CCC(F)(F)C(F)(F)F)n3)nc(N)c21 (stereo not shown) [Example 260A, 4-Amino-2-(3-benzyl-8-(3,3,4,4,4-pentafluorobutyl)imidazo[1,2-a]pyrazin-6-yl)-5-(4-fluorophenyl)-5-methyl-5H-pyrrolo[2,3-d]pyrimidin-6(7H)-one] | 90% | 504 nM |
| CC1(c2ccc(F)cc2)C(=O)Nc2nc(-c3cn4c(CCC5CCCCC5)cnc4cn3)nc(N)c21 (stereo not shown) [Example 261A, 4-Amino-2-(3-(2-cyclohexylethyl)imidazo[1,2-a]pyrazin-6-yl)-5-(4-fluorophenyl)-5-methyl-5H-pyrrolo[2,3-d]pyrimidin-6(7H)-one] | 116% | 822 nM |
| CC1(c2ccc(F)cn2)C(=O)Nc2nc(-c3cn4c(Br)cnc4c(CCC(F)(F)C(F)(F)F)n3)nc(N)c21 (stereo not shown) [Example 262B, 4-Amino-2-(3-bromo-8-(3,3,4,4,4-pentafluorobutyl)imidazo[1,2-a]pyrazin-6-yl)-5-(5-fluoropyridin-2-yl)-5-methyl-5H-pyrrolo[2,3-d]pyrimidin-6(7H)-one] | 105% | 236 nM |
| CC1(C)C(=O)Nc2nc(-c3cn4c(Br)cnc4c(CCC(F)(F)C(F)(F)F)n3)nc(N)c21 [Example 263, 4-amino-2-(3-bromo-8-(3,3,4,4,4-pentafluorobutyl)imidazo[1,2-a]pyrazin-6-yl)-5,5-dimethyl-5H-pyrrolo[2,3-d]pyrimidin-6(7H)-one] | 20% | 314 nM |
| CC1(c2ccccc2)C(=O)Nc2nc(-c3cn4c(Br)cnc4c(CCC(F)(F)F)n3)nc(N)c21 (stereo not shown) [Example 265B, 4-amino-2-(3-bromo-8-(3,3,3-trifluoropropyl)imidazo[1,2-a]pyrazin-6-yl)-5-methyl-5-phenyl-5H-pyrrolo[2,3-d]pyrimidin-6(7H)-one] | 121% | 648 nM |
| CC1(c2ccc(F)cn2)C(=O)Nc2nc(-c3cn4c(N)cnc4c(CCC(F)(F)C(F)(F)F)n3)nc(N)c21 (stereo not shown) [Example 268B, 4-Amino-2-(3-amino-8-(3,3,4,4,4-pentafluorobutyl)imidazo[1,2-a]pyrazin-6-yl)-5-(5-fluoropyridin-2-yl)-5-methyl-5H-pyrrolo[2,3-d]pyrimidin-6(7H)-one] | 79% | 338 nM |
| CC1(c2ccc(Cl)cn2)C(=O)Nc2nc(-c3cn4c(N)cnc4c(CCC(F)(F)C(F)(F)F)n3)nc(N)c21 (stereo not shown) [Example 269A, 4-amino-2-(3-amino-8-(3,3,4,4,4-pentafluorobutyl)imidazo[1,2-a]pyrazin-6-yl)-5-(5-chloropyridin-2-yl)-5-methyl-5H-pyrrolo[2,3-d]pyrimidin-6(7H)-one] | 198% | 5090 nM |
| CN(C)C(=O)c1cccc(C2(C)C(=O)Nc3nc(-c4cn5ccnc5c(CCC(F)(F)C(F)(F)F)n4)nc(N)c32)c1 (stereo not shown) [Example 271B, 3-(4-Amino-5-methyl-6-oxo-2-(8-(3,3,4,4,4-pentafluorobutyl)imidazo[1,2-a]pyrazin-6-yl)-6,7-dihydro-5H-pyrrolo[2,3-d]pyrimidin-5-yl)-N,N-dimethylbenzamide] | 95% | 622 nM |
| CC1(C)C(=O)Nc2nc(-c3cn4ccnc4c(Cc4cccc(C#N)c4)n3)nc(N)c21 [Example 272, 3-((6-(4-Amino-5,5-dimethyl-6-oxo-6,7-dihydro-5H-pyrrolo[2,3-d]pyrimidin-2-yl)imidazo[1,2-a]pyrazin-8-yl)methyl)benzonitrile] | 114% | 367 nM |
| Cc1nc2c(CCC(F)(F)C(F)(F)F)nc(-c3nc(N)c4c(n3)NC(=O)C4(C)c3ccc(F)cc3)cn2c1C#N (stereo not shown) [Example 274A, 6-(4-amino-5-(4-fluorophenyl)-5-methyl-6-oxo-6,7-dihydro-5H-pyrrolo[2,3-d]pyrimidin-2-yl)-2-methyl-8-(3,3,4,4,4-pentafluorobutyl)imidazo[1,2-a]pyrazine-3-carbonitrile] | 100% | 238 nM |

Stronger by EC50, values ahead:

| Emax | EC50 | Structure (SMILES) |
| --- | --- | --- |
| 88% | 82 nM | COc1ccc(C2(C)C(=O)Nc3nc(-c4cn5ccnc5c(CCC(F)(F)C(F)(F)F)n4)nc(N)c32)nc1 (stereo not shown) [Example 248B, 4-amino-5-(5-methoxypyridin-2-yl)-5-methyl-2-(8-(3,3,4,4,4-pentafluorobutyl)imidazo [12-a]pyrazin-6-yl)-5H-pyrrolo[2,3-d]pyrimidin-6(7H)-one] |
| 121% | 175 nM | Cc1ccc(C2(C)C(=O)Nc3nc(-c4cn5ccnc5c(CCC(F)(F)C(F)(F)F)n4)nc(N)c32)nn1 (stereo not shown) [Example 252B, 4-amino-5-methyl-5-(6-methylpyridazin-3-yl)-2-(8-(3,3,4,4,4-pentafluorobutyl)imidazo [1,2-a]pyrazin-6-yl)-5H-pyrrolo[2,3-d]pyrimidin-6(7H)-one] |
| 86% | 24 nM | CC1(c2ccccc2)C(=O)Nc2nc(-c3cn4c(Cl)cnc4c(CCC(F)(F)C(F)(F)F)n3)nc(N)c21 (stereo not shown) [Example 256B, 4-amino-2-(3-chloro-8-(3,3,4,4,4-pentafluorobutyl)imidazo [1,2-a]pyrazin-6-yl)-5-methyl-5-phenyl-5H-pyrrolo[2,3-d]pyrimidin-6(7H)-one] |
| 116% | 89 nM | CC1(c2ccc(F)cc2)C(=O)Nc2nc(-c3cn4c(Cl)cnc4c(CCC(F)(F)F)n3)nc(N)c21 (stereo not shown) [Example 258A, 4-amino-2-(3-chloro-8-(3,3,3-trifluoropropyl)imidazo[1,2-a]pyrazin-6-yl)-5-(4-fluorophenyl)-5-methyl-5H-pyrrolo[2,3-d]pyrimidin-6(7H)-one] |
| 99% | 112 nM | CC1(c2ccccc2)C(=O)Nc2nc(-c3cn4c(Cl)cnc4c(CCC(F)(F)F)n3)nc(N)c21 (stereo not shown) [Example 259B, 4-amino-2-(3-chloro-8-(3,3,3-trifluoropropyl)imidazo[1,2-a]pyrazin-6-yl)-5-methyl-5-phenyl-5H-pyrrolo[2,3-d]pyrimidin-6(7H)-one] |
| 101% | 141 nM | Cc1nc2c(CCC(F)(F)C(F)(F)F)nc(-c3nc(N)c4c(n3)NC(=O)C4(C)c3ccc(F)cc3)cn2c1Br (stereo not shown) [Example 266A, 4-amino-2-(3-bromo-2-methyl-8-(3,3,4,4,4-pentafluorobutyl)imidazo[1,2-a]pyrazin-6-yl)-5-(4-fluorophenyl)-5-methyl-5H-pyrrolo[2,3-d]pyrimidin-6(7H)-one] |
| 91% | 212 nM | CC1(c2ccc(F)cc2)C(=O)Nc2nc(-c3cn4c(N)cnc4c(CCC(F)(F)C(F)(F)F)n3)nc(N)c21 (stereo not shown) [Example 267A, 4-Amino-2-(3-amino-8-(3,3,4,4,4-pentafluorobutyl)imidazo[1,2-a]pyrazin-6-yl)-5-(4-fluorophenyl)-5-methyl-5H-pyrrolo[2,3-d]pyrimidin-6(7H)-one] |
| 81% | 61 nM | CC1(c2ccc(F)cc2)C(=O)Nc2nc(-c3cn4c(C#N)cnc4c(CCC(F)(F)C(F)(F)F)n3)nc(N)c21 (stereo not shown) [Example 273A, 6-(4-Amino-5-(4-fluorophenyl)-5-methyl-6-oxo-6,7-dihydro-5H-pyrrolo[2,3-d]pyrimidin-2-yl)-8-(3,3,4,4,4-pentafluorobutyl)imidazo[1,2-3a]pyrazine-3-carbonitrile] |
| 98% | 89 nM | CC1(c2ccc(F)cc2)C(=O)Nc2nc(-c3cn4cc(C#N)nc4c(CCC(F)(F)C(F)(F)F)n3)nc(N)c21 (stereo not shown) [Example 275A, 6-(4-Amino-5-(4-fluorophenyl)-5-methyl-6-oxo-6,7-dihydro-5H-pyrrolo[2,3-d]pyrimidin-2-yl)-8-(3,3,4,4,4-pentafluorobutyl)imidazo[1,2-a]pyrazine-2-carbonitrile] |
